From US20260000692A1, “Substituted N-(Pyridin-2-yl)Acetamide Derivatives as CDK12/13 Inhibitors” (Aurigene Oncology Limited, priority 2022, published 2026)

Target: CDK12 (Homo sapiens, UniProt Q9NYV4)
Assay: Biochemical assay for CDK12 (LANCE TR-FRET, IC50 determination)
Settings: for IC50: CDK12, IC50 class, read-out: IC50 μM (in range); for inhibition at 10 µM / CDK12 % Inhibition @ 10 μM: compound at 10 μM; for inhibition at 10 µM: read-out: CDK12 % Inhibition @ 10 μM
How it was run: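 30 nM CDK12 phosphorylated 100 nM ULight-4E-BP1 (Thr37/Thr46) peptide at 100 µM ATP, as printed, in HEPES pH 7.5 buffer with MgCl2 and DTT. Compound and enzyme were preincubated 60 min, then reacted 60 min at room temperature before stopping with EDTA and Eu anti-phospho antibody. TR-FRET 665/615 ratio gave sigmoidal IC50 fits.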

Sequence of CDK12 (Q9NYV4 whole entry): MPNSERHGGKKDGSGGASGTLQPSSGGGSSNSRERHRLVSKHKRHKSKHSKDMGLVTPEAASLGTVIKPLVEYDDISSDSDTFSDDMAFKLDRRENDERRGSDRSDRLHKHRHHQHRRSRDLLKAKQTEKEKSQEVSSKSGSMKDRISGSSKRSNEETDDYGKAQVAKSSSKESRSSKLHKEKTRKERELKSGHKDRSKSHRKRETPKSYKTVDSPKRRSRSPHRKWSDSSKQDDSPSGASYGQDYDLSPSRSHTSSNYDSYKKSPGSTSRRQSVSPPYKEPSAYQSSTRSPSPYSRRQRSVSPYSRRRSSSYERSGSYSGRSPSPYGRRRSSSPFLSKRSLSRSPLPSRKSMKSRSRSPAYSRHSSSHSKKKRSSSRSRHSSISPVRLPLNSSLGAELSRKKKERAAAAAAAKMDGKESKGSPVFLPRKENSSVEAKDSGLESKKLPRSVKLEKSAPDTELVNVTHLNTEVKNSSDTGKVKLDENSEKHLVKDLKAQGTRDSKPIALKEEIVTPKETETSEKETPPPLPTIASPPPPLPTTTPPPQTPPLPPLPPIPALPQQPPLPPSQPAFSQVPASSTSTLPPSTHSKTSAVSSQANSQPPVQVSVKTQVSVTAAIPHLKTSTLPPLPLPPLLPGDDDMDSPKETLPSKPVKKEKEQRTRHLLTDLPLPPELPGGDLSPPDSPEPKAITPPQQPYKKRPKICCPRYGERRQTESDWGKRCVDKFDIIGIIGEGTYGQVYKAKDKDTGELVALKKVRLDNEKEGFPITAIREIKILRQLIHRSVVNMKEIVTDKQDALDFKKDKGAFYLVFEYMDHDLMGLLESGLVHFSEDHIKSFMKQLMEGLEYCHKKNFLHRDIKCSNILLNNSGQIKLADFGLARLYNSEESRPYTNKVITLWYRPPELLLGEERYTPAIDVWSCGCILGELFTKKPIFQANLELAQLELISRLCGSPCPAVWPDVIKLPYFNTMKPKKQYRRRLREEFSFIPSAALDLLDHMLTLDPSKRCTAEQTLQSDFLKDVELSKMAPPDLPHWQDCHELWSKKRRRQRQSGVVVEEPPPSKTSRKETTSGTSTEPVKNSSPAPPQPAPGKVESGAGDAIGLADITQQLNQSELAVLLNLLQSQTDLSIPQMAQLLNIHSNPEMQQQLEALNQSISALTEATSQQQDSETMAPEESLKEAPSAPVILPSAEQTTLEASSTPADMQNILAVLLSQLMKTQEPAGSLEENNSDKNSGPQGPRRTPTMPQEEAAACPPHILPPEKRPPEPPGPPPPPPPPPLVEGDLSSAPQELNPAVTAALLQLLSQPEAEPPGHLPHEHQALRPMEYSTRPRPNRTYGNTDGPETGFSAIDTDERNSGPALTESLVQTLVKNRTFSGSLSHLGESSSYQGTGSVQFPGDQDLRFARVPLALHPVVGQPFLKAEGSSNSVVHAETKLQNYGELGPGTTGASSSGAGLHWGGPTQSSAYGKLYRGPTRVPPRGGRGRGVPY
Sequence of CDK12 (O75909 whole entry partner): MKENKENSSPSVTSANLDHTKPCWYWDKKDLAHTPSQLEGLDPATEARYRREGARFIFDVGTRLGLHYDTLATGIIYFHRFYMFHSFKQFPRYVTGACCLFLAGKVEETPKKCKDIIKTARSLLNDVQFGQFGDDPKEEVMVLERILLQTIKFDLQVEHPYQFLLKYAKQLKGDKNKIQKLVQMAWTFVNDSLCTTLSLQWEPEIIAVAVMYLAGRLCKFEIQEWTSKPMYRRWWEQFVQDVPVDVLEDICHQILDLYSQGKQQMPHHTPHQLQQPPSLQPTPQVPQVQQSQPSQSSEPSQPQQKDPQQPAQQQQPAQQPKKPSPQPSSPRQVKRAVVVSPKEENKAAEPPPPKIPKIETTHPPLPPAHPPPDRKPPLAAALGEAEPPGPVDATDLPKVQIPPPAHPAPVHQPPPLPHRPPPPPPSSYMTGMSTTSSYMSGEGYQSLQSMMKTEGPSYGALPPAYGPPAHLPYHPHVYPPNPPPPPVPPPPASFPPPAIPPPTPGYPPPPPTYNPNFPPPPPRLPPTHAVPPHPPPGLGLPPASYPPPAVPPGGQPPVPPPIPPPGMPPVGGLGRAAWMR

Structure (SMILES) | IC50 | inhibition at 10 µM | CDK12 % Inhibition @ 10 μM
CN1CCC(Oc2cc(NC(=O)Cc3ccc(C4=CCN(C#N)CC4)nc3)ncc2Cl)CC1 [Compound 11, N-(5-chloro-4-((1-methylpiperidin-4-yl)oxy)pyridin-2-yl)-2-(1′-cyano-1′,2′,3′,6′-tetrahydro-[2,4′-bipyridin]-5-yl)acetamide] | 0.01 to 0.1 µM | 89% | 
CNC(=O)C(C)Oc1cc(NC(=O)Cc2ccc(C3CCCN(C#N)C3)nc2)ncc1Cl (stereo not drawn) [Compound 85, 2-((5-chloro-2-(2-(6-(1-cyanopiperidin-3-yl)pyridin-3-yl)acetamido)pyridin-4-yl)oxy)-N-methylpropanamide] | 0.01 to 0.1 µM | 92% | 
N#Cc1ccc(-c2ccc(CC(=O)Nc3cc(O[C@@H]4CCOC4)c(Cl)cn3)cn2)cn1 [Compound 146, (R)-N-(5-chloro-4-((tetrahydrofuran-3-yl)oxy)pyridin-2-yl)-2-(6′-cyano-[2,3′-bipyridin]-5-yl)acetamide] | 0.01 to 0.1 µM | 90% | 
COc1cc(NC(=O)Cc2ccc(-c3cc(OC4CCN(C)CC4F)cc(C#N)n3)nc2)ncc1Cl (stereo not drawn) [Compound 198, N-(5-chloro-4-methoxypyridin-2-yl)-2-(6′-cyano-4′-((3-fluoro-1-methylpiperidin-4-yl)oxy)-[2,2′-bipyridin]-5-yl)acetamide] | 0.01 to 0.1 µM | 100% | 
N#CN1CCCC(c2ccc(CC(=O)Nc3cc(O[C@H]4CCOC4)c(Cl)cn3)cn2)C1 (stereo partly drawn) [Compound 95, N-(5-chloro-4-(((S)-tetrahydrofuran-3-yl)oxy)pyridin-2-yl)-2-(6-(1-cyanopiperidin-3-yl)pyridin-3-yl)acetamide] | 0.01 to 0.1 µM | 90% | 
COc1cc(NC(=O)C(C)c2ccc(C3=CCCN(C#N)C3)nc2)ncc1Cl (single isomer, unassigned) [Compound 49] | < 0.01 µM | 89% | 
COc1cc(NC(=O)Cc2ccc(-c3cc(OC4CCCN(C)C4)cc(C#N)n3)nc2)ncc1Cl (stereo not drawn) [Compound 199, N-(5-chloro-4-methoxypyridin-2-yl)-2-(6′-cyano-4′-((1-methylpiperidin-3-yl)oxy)-[2,2′-bipyridin]-5-yl)acetamide] | < 0.01 µM | 88% | 
COCCOc1cc(C#N)nc(-c2ccc(CC(=O)Nc3cc(OC)c(Cl)cn3)cn2)c1 [Compound 169, N-(5-chloro-4-methoxypyridin-2-yl)-2-(6′-cyano-4′-(2-methoxyethoxy)-[2,2′-bipyridin]-5-yl)acetamide] | 0.01 to 0.1 µM | 95% | 
CNC(=O)C(C)Oc1cc(NC(=O)Cc2ccc(C3CCCN(C#N)C3)nc2)ncc1Cl (single isomer, unassigned) [Compound 90, 2-((5-chloro-2-(2-(6-(1-cyanopiperidin-3-yl)pyridin-3-yl)acetamido)pyridin-4-yl)oxy)-N-methylpropanamide] | 0.01 to 0.1 µM |  | 93%
COc1cc(NC(=O)Cc2ccc(-c3cc(OCCN(C)C)cc(C#N)n3)nc2)ncc1Cl [Compound 170, N-(5-chloro-4-methoxypyridin-2-yl)-2-(6′-cyano-4′-(2-(dimethylamino)ethoxy)-[2,2′-bipyridin]-5-yl)acetamide] | 0.01 to 0.1 µM | 90% | 
COc1cc(NC(=O)Cc2ccc(C3=CCN(C#N)C(C)C3)nc2)ncc1Cl (single isomer, unassigned) [Compound 67, N-(5-chloro-4-methoxypyridin-2-yl)-2-(1′-cyano-2′-methyl-1′,2′,3′,6′-tetrahydro-[2,4′-bipyridin]-5-yl)acetamide] | 0.01 to 0.1 µM |  | 86%
COc1cc(NC(=O)Cc2ccc(C3CCCN(C#N)C3)nc2)ncc1Cl (single isomer, unassigned) [Compound 80, N-(5-chloro-4-methoxypyridin-2-yl)-2-(6-(1-cyanopiperidin-3-yl)pyridin-3-yl)acetamide] | 0.01 to 0.1 µM |  | 87%
N#CN1CCC=C(c2ccc(CC(=O)Nc3cc(OC4CCCOC4)c(Cl)cn3)cn2)C1 (single isomer, unassigned) [Compound 45, N-(5-chloro-4-((tetrahydro-2H-pyran-3-yl)oxy)pyridin-2-yl)-2-(1′-cyano-1′,2′,5′,6′-tetrahydro-[2,3′-bipyridin]-5-yl)acetamide] | < 0.01 µM |  | 92%
COc1cc(NC(=O)Cc2ccc(-c3ccc(CN(C#N)C(C)C)nc3)nc2)ncc1Cl [Compound 132, N-(5-chloro-4-methoxypyridin-2-yl)-2-(6′-((N-isopropylcyanamido)methyl)-[2,3′-bipyridin]-5-yl)acetamide] | > 0.1 µM | 93% | 
COc1cc(NC(=O)Cc2ccc(-c3cc(O[C@H]4CCOC4)cc(C#N)n3)nc2)ncc1Cl [Compound 197, (S)-N-(5-chloro-4-methoxypyridin-2-yl)-2-(6′-cyano-4′-((tetrahydrofuran-3-yl)oxy)-[2,2′-bipyridin]-5-yl)acetamide] | 0.01 to 0.1 µM |  | 87%
COc1cc(NC(=O)Cc2ccc(-c3cc(N4CCC(C)(O)CC4)cc(C#N)n3)nc2)ncc1Cl [Compound 192, N-(5-chloro-4-methoxypyridin-2-yl)-2-(6′-cyano-4′-(4-hydroxy-4-methylpiperidin-1-yl)-[2,2′-bipyridin]-5-yl)acetamide] | 0.01 to 0.1 µM | 88% | 
Cc1ccc(NC(=O)Cc2ccc(C3=CCCN(C#N)C3)nc2)nc1 [Compound 104, 2-(1′-cyano-1′,2′,5′,6′-tetrahydro-[2,3′-bipyridin]-5-yl)-N-(5-methylpyridin-2-yl)acetamide] | 0.01 to 0.1 µM | 79% | 
CN1CCC[C@H](Oc2cc(NC(=O)Cc3ccc(C4=CCN(C#N)CC4)nc3)ncc2Cl)C1 [Compound 33, (S)-N-(5-chloro-4-((1-methylpiperidin-3-yl)oxy)pyridin-2-yl)-2-(1′-cyano-1′,2′,3′,6′-tetrahydro-[2,4′-bipyridin]-5-yl)acetamide] | < 0.01 µM | 88% | 
N#CN1CCCC(c2ccc(CC(=O)Nc3cc(O[C@H]4CCOC4)c(Cl)cn3)cn2)C1 (single isomer, unassigned) [Compound 97] | 0.01 to 0.1 µM |  | 96%
COc1cc(C#N)nc(-c2ccc(CC(=O)Nc3cc(OC)c(Cl)cn3)cn2)c1 [Compound 165, N-(5-chloro-4-methoxypyridin-2-yl)-2-(6′-cyano-4′-methoxy-[2,2′-bipyridin]-5-yl)acetamide] | 0.01 to 0.1 µM | 72% | 
CNC(=O)C(C)Oc1cc(NC(=O)Cc2ccc(-c3ccnc(C#N)c3)nc2)ncc1Cl (stereo not drawn) [Compound 144, 2-((5-chloro-2-(2-(2′-cyano-[2,4′-bipyridin]-5-yl)acetamido)pyridin-4-yl)oxy)-N-methylpropanamide] | 0.01 to 0.1 µM | 92% | 
CN1CC[C@H](Oc2cc(NC(=O)Cc3ccc(C4CCN(C#N)CC4)nc3)ncc2Cl)C1 [Compound 118, (S)-N-(5-chloro-4-((1-methylpyrrolidin-3-yl)oxy)pyridin-2-yl)-2-(6-(1-cyanopiperidin-4-yl)pyridin-3-yl)acetamide] | > 0.1 µM | 81% | 
COc1cc(NC(=O)Cc2ccc(C3CCN(C#N)CC3C)nc2)ncc1Cl (stereo not drawn) [Compound 60, N-(5-chloro-4-methoxypyridin-2-yl)-2-(6-(1-cyano-3-methylpiperidin-4-yl)pyridin-3-yl)acetamide] | 0.01 to 0.1 µM | 87% | 
COc1cc(NC(=O)Cc2ccc(-c3cccc(C#N)n3)nc2)ncc1Cl [Compound 156, N-(5-chloro-4-methoxypyridin-2-yl)-2-(6′-cyano-[2,2′-bipyridin]-5-yl)acetamide] | < 0.01 µM | 80% | 
N#CN1CC=C(c2ccc(CC(=O)Nc3cc(OC4CC5(CNC5)C4)c(Cl)cn3)cn2)CC1 [Compound 137, N-(4-((2-azaspiro[3.3]heptan-6-yl)oxy)-5-chloropyridin-2-yl)-2-(1′-cyano-1′,2′,3′,6′-tetrahydro-[2,4′-bipyridin]-5-yl)acetamide] | 0.01 to 0.1 µM | 89% | 
N#Cc1ncc(-c2ccc(CC(=O)Nc3cc(O[C@@H]4CCOC4)c(Cl)cn3)cn2)cn1 [Compound 150, (R)-N-(5-chloro-4-((tetrahydrofuran-3-yl)oxy)pyridin-2-yl)-2-(6-(2-cyanopyrimidin-5-yl)pyridin-3-yl)acetamide] | 0.01 to 0.1 µM | 83% | 
CC(CN(C)C)Oc1cc(NC(=O)Cc2ccc(C3=CCCN(C#N)C3)nc2)ncc1Cl (stereo not drawn) [Compound 42, N-(5-chloro-4-((1-(dimethylamino)propan-2-yl)oxy)pyridin-2-yl)-2-(1′-cyano-1′,2′,5′,6′-tetrahydro-[2,3′-bipyridin]-5-yl)acetamide] | > 0.1 µM | 116% | 
N#CN1CC=C(c2ccc(CC(=O)Nc3cc(OC4CCOCC4)c(Cl)cn3)cn2)CC1 [Compound 19, N-(5-chloro-4-((tetrahydro-2H-pyran-4-yl)oxy)pyridin-2-yl)-2-(1′-cyano-1′,2′,3′,6′-tetrahydro-[2,4′-bipyridin]-5-yl)acetamide] | < 0.01 µM | 91% | 
COC[C@@H](C)Oc1cc(NC(=O)Cc2ccc(C3=CCCN(C#N)C3)nc2)ncc1Cl [Compound 36, (R)-N-(5-chloro-4-((1-methoxypropan-2-yl)oxy)pyridin-2-yl)-2-(1′-cyano-1′,2′,5′,6′-tetrahydro-[2,3′-bipyridin]-5-yl)acetamide] | < 0.01 µM | 95% | 
N#CN1CCC(c2ccc(CC(=O)Nc3cc(O[C@H]4CCOC4)c(Cl)cn3)cn2)CC1 [Compound 99, (S)-N-(5-chloro-4-((tetrahydrofuran-3-yl)oxy)pyridin-2-yl)-2-(6-(1-cyanopiperidin-4-yl)pyridin-3-yl)acetamide] | 0.01 to 0.1 µM | 95% | 
